Test [1] concerns angiotensin I-induced hypertensive rats. Description: oral antihypertensive activity in angiotensin I-induced hypertensive rats. The class given is in vivo. As to conditions: Rattus norvegicus, dose for 50% reduction in angiotensin I-induced hypertension, read-out: I50 (ID50, antihypertensive activity).
Test [2] concerns the target T1, angiotensin converting enzyme (Oryctolagus cuniculus, UniProt P12822).
T1 sequence (P12822 34-1310): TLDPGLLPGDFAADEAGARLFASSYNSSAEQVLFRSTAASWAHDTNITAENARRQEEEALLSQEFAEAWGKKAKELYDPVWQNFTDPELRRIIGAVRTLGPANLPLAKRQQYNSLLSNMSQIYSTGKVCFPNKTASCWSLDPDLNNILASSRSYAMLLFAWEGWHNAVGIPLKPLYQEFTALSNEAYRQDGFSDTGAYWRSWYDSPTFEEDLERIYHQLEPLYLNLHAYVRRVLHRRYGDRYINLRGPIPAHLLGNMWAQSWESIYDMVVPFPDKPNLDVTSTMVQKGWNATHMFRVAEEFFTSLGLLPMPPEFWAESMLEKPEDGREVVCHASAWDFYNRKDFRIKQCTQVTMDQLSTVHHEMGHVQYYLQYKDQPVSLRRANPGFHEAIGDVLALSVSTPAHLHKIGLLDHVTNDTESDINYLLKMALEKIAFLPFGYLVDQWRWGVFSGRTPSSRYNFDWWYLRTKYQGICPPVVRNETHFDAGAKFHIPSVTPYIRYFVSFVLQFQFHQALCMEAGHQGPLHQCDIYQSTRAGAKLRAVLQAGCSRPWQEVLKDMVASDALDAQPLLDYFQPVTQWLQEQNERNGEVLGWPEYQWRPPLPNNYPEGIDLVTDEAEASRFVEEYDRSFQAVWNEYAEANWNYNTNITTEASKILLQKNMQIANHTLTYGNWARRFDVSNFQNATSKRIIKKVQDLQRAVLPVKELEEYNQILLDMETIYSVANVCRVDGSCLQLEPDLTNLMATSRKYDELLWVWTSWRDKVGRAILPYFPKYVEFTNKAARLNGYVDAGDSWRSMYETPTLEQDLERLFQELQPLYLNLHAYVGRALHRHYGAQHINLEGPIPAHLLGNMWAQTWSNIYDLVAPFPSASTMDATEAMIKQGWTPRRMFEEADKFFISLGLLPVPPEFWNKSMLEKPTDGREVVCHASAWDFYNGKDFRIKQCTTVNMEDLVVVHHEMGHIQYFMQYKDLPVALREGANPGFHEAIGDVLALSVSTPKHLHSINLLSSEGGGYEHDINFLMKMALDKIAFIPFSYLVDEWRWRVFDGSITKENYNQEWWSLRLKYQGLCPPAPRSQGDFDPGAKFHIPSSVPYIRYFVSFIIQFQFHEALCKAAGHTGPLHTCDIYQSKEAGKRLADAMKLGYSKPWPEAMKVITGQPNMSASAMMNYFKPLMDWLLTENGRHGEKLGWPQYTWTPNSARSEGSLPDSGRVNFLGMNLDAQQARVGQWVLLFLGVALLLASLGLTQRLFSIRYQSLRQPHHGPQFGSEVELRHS
The test is described as follows: angiotensin converting enzyme inhibition (ACEI activity), method of Science 196, 441-4 (1977). The format is biochemical. The conditions noted are these: amount required for 50% inhibitive effect, read-out: I50 (ACEI activity). The source says:
The I50 value represents the amount in micromols required to give an inhibitive effect of 50% in the tests using the procedure described in the Science article.

In the case of `CC(CS)C(=O)N(CC(=O)O)C1CC1` (centres unmarked) [Cyclopropyl H, N-(3-Mercapto-2-methylpropanoyl)-N-cyclopropylglycine], the ED50 in test [1] was 0.14 mg/kg. Besides, the IC50 in test [2] was determined as 0.027 µM. On to `CC(CS)C(=O)N(CC(=O)O)C1CCCCCC1` (centres unmarked) [Cycloheptyl H, N-(3-Mercapto-2-methylpropanoyl)-N-cycloheptylglycine], for which the ED50 in test [1] came out at 0.021 mg/kg.

Consider `CC(=O)SCC(C)C(=O)N(CC(=O)O)C1CC1` (centres unmarked) [Cyclopropyl CH3 CO, N-(3-Acetylthio-2-methylpropanoyl)-N-(cyclopropyl)glycine], for which the ED50 in test [1] came to 0.13 mg/kg. For the molecule `CC(CS)C(=O)N(CC(=O)O)C1CCCC1` (centres unmarked) [Cyclopentyl H, N-(3-Mercapto-2-methylpropanoyl)-N-cyclopentylglycine], the ED50 in test [1] worked out at 0.15 mg/kg.

`CC(CS)C(=O)N(CC(=O)O)C1CCC1` (centres unmarked) [Cylcobutyl H, N-(3-Mercapto-2-methylpropanoyl)-N-cyclobutylglycine]: the ED50 in test [1] came out at 0.21 mg/kg.

Regarding `COCCN(CC(=O)O)C(=O)C(C)CS` (centres unmarked) [H3 CO(CH2)2 H], the IC50 in test [2] came to 0.095 µM. Turning to `CC(=O)SCC(C)C(=O)N(CC(=O)O)C1CCCC1` (centres unmarked) [Cyclopentyl CH3 CO, N-(3-Acetylthio-2-methylpropanoyl)-N-cyclopentylglycine], in test [1], the ED50 was 0.16 mg/kg. For the same molecule, the IC50 in test [2] was found to be 0.044 µM. As to `CC(=O)SCC(C)C(=O)N(CC(=O)O)c1ccccc1` (centres unmarked) [Phenyl CH3 CO, N-(3-Acetylthio-2-methylpropanoyl)-N-phenylglycine], in test [1], the ED50 worked out at 0.23 mg/kg. Take `CC(=O)SCC(C)C(=O)N(CC(=O)O)C1CCCCCC1` (centres unmarked) [Cycloheptyl CH3 CO, N-(3-Acetylthio-2-methylpropanoyl)-N-cycloheptylglycine]: in test [2], the IC50 turned out to be 0.088 µM. Turning to `CC(CS)C(=O)N(CC(=O)O)C1Cc2ccccc2C1` (centres unmarked) [2-Indanyl H, N-(3-Mercapto-2-methylpropanoyl)-N-(indan-2-yl)glycine], in test [1], the ED50 was found to be 0.16 mg/kg. For the molecule `CC(=O)SCC(C)C(=O)N(CC(=O)O)[C@@H]1C[C@H]2CC[C@@H]1C2` (stereo partly drawn) [exo-Norbornyl CH3 CO, N-(3-Acetylthio-2-methylpropanoyl)-N-(exo-norbornyl)glycine], the ED50 in test [1] stood at 0.06 mg/kg. Further, the IC50 in test [2] was 0.022 µM. On to `CC(CS)C(=O)N(CC(=O)O)[C@@H]1C[C@H]2CC[C@@H]1C2` (stereo partly drawn) [exo-Norbornyl H, N-(3-Mercapto-2-methylpropanoyl)-N-(exo-norbornyl)glycine], for which, in test [1], the ED50 came out at 0.11 mg/kg. In addition, the IC50 in test [2] worked out at 0.025 µM. For the molecule `CSCCCN(CC(=O)O)C(=O)C(C)CS` (centres unmarked) [H3 CS(CH2)3 H, N-(3-Mercapto-2-methylpropanoyl)-N-(3-methylthiopropyl)glycine], the IC50 in test [2] is 0.055 µM.

These data come from patent US4256761A, “Antihypertensive amides” (USV Pharmaceutical Corporation, priority 1979, dated 1981).
